From patent US9029377B2, “Platelet-activating factor receptor antagonists” (Merck Sharp & Dohme Corp., priority 2009, dated 2015) come the findings set out here.

This test deals with PAFR (Homo sapiens, UniProt P25105). The test is described as follows: PAF Binding Assay (PAFR binding).
Chain of PAFR (P25105 whole entry): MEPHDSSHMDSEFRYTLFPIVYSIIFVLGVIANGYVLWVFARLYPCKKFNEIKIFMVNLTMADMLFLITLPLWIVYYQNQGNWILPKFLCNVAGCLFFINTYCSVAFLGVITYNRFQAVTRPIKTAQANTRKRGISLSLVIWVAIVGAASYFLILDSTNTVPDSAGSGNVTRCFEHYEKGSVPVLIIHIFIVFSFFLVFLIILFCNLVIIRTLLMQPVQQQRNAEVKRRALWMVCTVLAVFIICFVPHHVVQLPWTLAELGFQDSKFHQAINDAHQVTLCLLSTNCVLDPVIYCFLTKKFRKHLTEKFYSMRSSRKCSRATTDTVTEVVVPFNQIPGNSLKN
In turn, `CCCCCc1ccc(S(=O)(=O)N[C@H]2CCC[C@@H](n3cnnc3)C2)cc1` [Compound 2Mah, 4-pentyl-N-[(1S,3R)-3-(4H-1,2,4-triazol-4-yl)cyclohexyl]benzenesulfonamide] displayed an IC50 of 13 nM.

`CCCCOc1ccc(S(=O)(=O)N[C@H]2CCC[C@@H](n3cnnc3C)C2)cc1F` [Compound 2Fj, 4-butoxy-3-fluoro-N-[(1S,3R)-3-(3-methyl-4H-1,2,4-triazol-4-yl)cyclohexyl]benzenesulfonamide] yielded an IC50 of 1.9 nM.

`O=S(=O)(N[C@H]1CCC[C@@H](n2cnnc2C2CC2)C1)c1ccc(-c2noc(C3CCC3)n2)cc1OC(F)(F)F` [Compound 2Bc, 4-(5-cyclobutyl-1,2,4-oxadiazol-3-yl)-N-[(1S,3R)-3-(3-cycloropyl-4H-1,2,4-triazol-4-yl)cyclohexyl]-2-(trifluoromethoxy)benzenesulfonamide] gave an IC50 of 2.5 nM.

In turn, `O=S(=O)(N[C@H]1CCC[C@@H](n2cnnc2)C1)c1ccc(Oc2ncc(C(F)(F)F)cc2Cl)cc1` [Compound 2Mab, 4-{[3-chloro-5-(trifluoromethyl)pyridin-2-yl]oxy}-N-[(1S,3R)-3-(4H-1,2,4-triazol-4-yl)cyclohexyl]benzenesulfonamide] came in with an IC50 of 66 nM.

`O=S(=O)(N[C@H]1CCC[C@@H](n2cnnc2)C1)c1cc(-c2ccn3ncnc3c2)cc(C(F)(F)F)c1` [Compound 3Aal, 3-[1,2,4]triazolo[1,5-a]pyridin-7-yl-N-[(1S,3R)-3-(4H-1,2,4-triazol-4-yl)cyclohexyl]-5-(trifluoromethyl)benzenesulfonamide] yielded an IC50 of 42 nM. Compared with the last compound, the IC50 is about 1.6-fold lower.

Compound `O=S(=O)(N[C@H]1CCC[C@@H](n2cnnc2)C1)c1cc(-c2ccc(F)cc2)cc(C(F)(F)F)c1` [Compound 3Ac, 4′-fluoro-N-[(1S,3R)-3-(4H-1,2,4-triazol-4-yl)cyclohexyl]-5-(trifluoromethyl)biphenyl-3-sulfonamide] registered an IC50 of 6.2 nM.

The compound `Cc1nncn1[C@@H]1CCC[C@H](NS(=O)(=O)c2ccc(-c3noc(C4CC4)n3)cc2F)C1` [Compound 2Ja, 4-(5-cyclopropyl-1,2,4-oxadiazol-3-yl)-2-fluoro-N-[(1S,3R)-3-(3-methyl-4H-1,2,4-triazol-4-yl)cyclohexyl]benzenesulfonamide] displayed an IC50 of 22 nM.

As for `O=S(=O)(N[C@H]1CCC[C@@H](n2cnnc2)C1)c1ccc(-c2ccc(OCC(F)(F)F)nc2)c(F)c1` [Compound 2Ef, 3-fluoro-N-[(1S,3R)-3-(4H-1,2,4-triazol-4-yl)cyclohexyl]-4-[6-(2,2,2-trifluoroethoxy)pyridin-3-yl]benzenesulfonamide], the IC50 stood at 7 nM.

On to `O=S(=O)(N[C@H]1CCC[C@@H](n2cnnc2)C1)c1c(C2CC2)cc(-c2noc(C3CC(F)(F)C3)n2)cc1C1CC1` [Compound 2Rc, 2,6-dicyclopropyl-4-[5-(3,3-difluorocyclobutyl)-1,2,4-oxadiazol-3-yl]-N-[(1S,3R)-3-(4H-1,2,4-triazol-4-yl)cyclohexyl]benzenesulfonamide], for which the IC50 was found to be 2.9 nM.

Regarding “2-ethyl-N-[(1S,3R)-3-(4H-1,2,4-triazol-4-yl)cyclohexyl]biphenyl-4-sulfonamide [Compound 2Af]”, the IC50 was determined as 15 nM.

In turn, `CCc1cc(-c2cc(OC)cc(OC)c2)ccc1S(=O)(=O)N[C@H]1CCC[C@@H](n2cnnc2)C1` [Compound 2Au, 3-ethyl-3′,5′-dimethoxy-N-[(1S,3R)-3-(4H-1,2,4-triazol-4-yl)cyclohexyl]biphenyl-4-sulfonamide] gave an IC50 of 19 nM.

Compound `COc1ccc(S(=O)(=O)N[C@H]2CCC[C@@H](n3cnnc3)C2)c(OC)c1` [Compound 2My, 2,4-dimethoxy-N-[(1S,3R)-3-(4H-1,2,4-triazol-4-yl)cyclohexyl]benzenesulfonamide] registered an IC50 of 210 nM.

With `CCc1cc(-c2cccc(F)c2)ccc1S(=O)(=O)N[C@H]1CCC[C@@H](n2cnnc2)C1` [2 Am, 3-ethyl-3′-fluoro-N-[(1S,3R)-3-(4H-1,2,4-triazol-4-yl)cyclohexyl]benzenesulfonamide], the IC50 came out at 33 nM. This IC50 lies about 6.4-fold lower than the previous one.

On to `O=S(=O)(N[C@H]1CCC[C@@H](n2cnnc2)C1)c1cc(C(F)(F)F)cc(C(F)(F)F)c1` [2 Mb, N-[(1S,3R)-3-(4H-1,2,4-triazol-4-yl)cyclohexyl]-3,5-bis(trifluoromethyl)benzenesulfonamide], for which the IC50 stood at 280 nM.

`Cc1nncn1[C@@H]1CCC[C@H](NS(=O)(=O)c2ccc(-c3ccc(OCC(F)(F)F)nc3)cc2F)C1` [Compound 2Jh, 2-fluoro-N-[(1S,3R)-3-(3-methyl-4H-1,2,4-triazol-4-yl)cyclohexyl]-4-[6-(2,2,2-trifluoroethoxy)pyridin-3-yl]benzenesulfonamide] returned a concentration for half-maximal inhibition (IC50) of 3.4 nM.

`CCc1cc(-c2ccc(OC(F)(F)F)cc2)ccc1S(=O)(=O)N[C@H]1CCC[C@@H](n2cnnc2C)C1` [Compound 2Abd, 3-ethyl-N-[(1S,3R)-3-(3-methyl-4H-1,2,4-triazol-4-yl)cyclohexyl]-4′-(trifluoromethoxy)biphenyl-4-sulfonamide] returned an IC50 of 2.2 nM. Against the preceding compound, the IC50 is about 1.5-fold lower.

With `CCc1cc(-n2cc(C)cn2)ccc1S(=O)(=O)N[C@H]1CCC[C@@H](n2cnnc2)C1` [Compound 6b, 2-ethyl-4-(4-methyl-1H-pyrazol-1-yl)-N-[(1S,3R)-3-(4H-1,2,4-triazol-4-yl)cyclohexyl]benzenesulfonamide], the IC50 was found to be 25 nM.

As for `CCOc1ccc(S(=O)(=O)N[C@H]2CCC[C@@H](n3cnnc3)C2)cc1` [Compound 2Maa, 4-ethoxy-N-[(1S,3R)-3-(4H-1,2,4-triazol-4-yl)cyclohexyl]benzenesulfonamide], the IC50 is 39 nM.

`O=S(=O)(N[C@H]1CCC[C@@H](n2cnnc2)C1)c1cc(-c2cccc3nccn23)cc(C(F)(F)F)c1` [Compound 3Aaa, 3-imidazo[1,2-a]-pyridin-5-yl-N-[(1S,3R)-3-(4H-1,2,4-triazol-4-yl)cyclohexyl]-5-(trifluoromethyl)benzenesulfonamide] had an IC50 of 13 nM.

`O=S(=O)(N[C@H]1CCC[C@@H](n2cnnc2)C1)c1cc(-c2ccn3nccc3n2)cc(C(F)(F)F)c1` [Compound 3Aak, 3-pyrazolo[1,5-a]pyrimidin-5-yl-N-[(1S,3R)-3-(4H-1,2,4-triazol-4-yl)cyclohexyl]-5-(trifluoromethyl)benzenesulfonamide] gave an IC50 of 3.6 nM.

For `CC(F)(F)c1nc(-c2ccc(S(=O)(=O)N[C@H]3CCC[C@@H](n4cnnc4)C3)c(C3CC3)c2)no1` [Compound 2Kc, 2-cyclopropyl-4-[5-(1,1-difluoroethyl)-1,2,4-oxadiazol-3-yl]-N-[(1S,3R)-3-(4H-1,2,4-triazol-4-yl)cyclohexyl]benzenesulfonamide], the IC50 came to 9.9 nM. This IC50 is about 2.8-fold higher than that of the compound before.

Compound `CCc1cc(-c2ccc(OCC(F)(F)F)nc2)ccc1S(=O)(=O)N[C@@H]1C[C@H](n2cnnc2)CC(F)(F)C1` [Compound 2Cak, N-[(1R,5S)-3,3-difluoro-5-(4H-1,2,4-triazol-4-yl)cyclohexyl]-2-ethyl-4-[6-(2,2,2-trifluoroethoxy)pyridin-3-yl]benzenesulfonamide] showed a 50% inhibitory concentration (IC50) of 3.1 nM. Compared with the last compound, the IC50 is about 3.2-fold lower.

With `O=S(=O)(N[C@H]1CCC[C@@H](n2cnnc2)C1)c1c(F)cc(-c2noc(C3CCC3)n2)cc1C1CC1` [Compound 2Sb, 4-(5-cyclobutyl-1,2,4-oxadiazol-3-yl)-2-cyclopropyl-6-fluoro-N-[(1S,3R)-3-(4H-1,2,4-triazol-4-yl)cyclohexyl]benzenesulfonamide], the 50% inhibitory concentration (IC50) was found to be 2.6 nM.

In turn, `Cc1nncn1[C@@H]1CCC[C@H](NS(=O)(=O)c2ccc(-c3cnc(Cl)c(F)c3)c(F)c2)C1` [Compound 2Fg, 4-(6-chloro-5-fluoropyridin-3-yl)-3-fluoro-N-[(1S,3R)-3-(3-methyl-4H-1,2,4-triazol-4-yl)cyclohexyl]benzenesulfonamide] gave an IC50 of 36 nM.

As to `O=S(=O)(N[C@H]1CCC[C@@H](n2cnnc2)C1)c1ccc(-c2ccc(OC(F)(F)F)cc2)cc1F` [Compound 2Ig, 3-fluoro-N-[(1S,3R)-3-(4H-1,2,4-triazol-4-yl)cyclohexyl]-4′-(trifluoromethoxy)biphenyl-4-sulfonamide], the IC50 worked out at 16 nM.

Take `O=S(=O)(N[C@H]1CCC[C@@H](n2cnnc2)C1)c1cc(-c2cccc(F)c2)cc(C(F)(F)F)c1` [Compound 3As, 3′-fluoro-N-[(1S,3R)-3-(4H-1,2,4-triazol-4-yl)cyclohexyl]-5-(trifluoromethyl)biphenyl-3-sulfonamide]: the IC50 amounted to 3.9 nM.

On to `O=S(=O)(N[C@H]1CCC[C@@H](n2cnnc2)C1)c1cc(-c2cccc3ccccc23)cc(C(F)(F)F)c1` [Compound 3Ao, 3-(1-naphthyl)-N-[(1S,3R)-3-(4H-1,2,4-triazol-4-yl)cyclohexyl]-5-(trifluoromethyl)benzenesulfonamide], for which the IC50 worked out at 15 nM.

As to `CCc1cc(-n2cnnn2)ccc1S(=O)(=O)N[C@H]1CCC[C@@H](n2cnnc2)C1` [Compound 5a, 2-ethyl-4-(1H-tetrazol-1-yl)-N-[(1S,3R)-3-(4H-1,2,4-triazol-4-yl)cyclohexyl]benzenesulfonamide], the half-maximal inhibitory concentration (IC50) was 815 nM.

For `O=S(=O)(N[C@H]1CCC[C@@H](n2cnnc2)C1)c1cc(-c2cccn3cnnc23)cc(C(F)(F)F)c1` [Compound 3d], the IC50 came out at 3.1 nM.

As to `O=S(=O)(N[C@H]1CCC[C@@H](n2cnnc2)C1)c1cc(-c2cccc3ccc(OCC(F)(F)F)nc23)cc(C(F)(F)F)c1` [Compound 3Aad, N-[(1S,3R)-3-(4H-1,2,4-triazol-4-yl)cyclohexyl]-3-[2-(2,2,2-trifluoroethoxy)quinolin-8-yl]-5-(trifluoromethyl)benzenesulfonamide], the IC50 stood at 4 nM.

In turn, `O=S(=O)(N[C@H]1CCC[C@@H](n2cnnc2)C1)c1cc(-c2ccc3nc(C4CC4)nn3c2)cc(C(F)(F)F)c1` [Compound 3Aaq, 3-(2-cyclopropyl[1,2,4]triazolo[1,5-a]pyridin-6-yl)-N-[(1S,3R)-3-(4H-1,2,4-triazol-4-yl)cyclohexyl]-5-(trifluoromethyl)benzenesulfonamide] showed an IC50 of 20 nM.

With `CC(C)(C)c1cccc(S(=O)(=O)N[C@H]2CCC[C@@H](n3cnnc3)C2)c1` [Compound 2Mf, 3-tert-butyl-N-[(1S,3R)-3-(4H-1,2,4-triazol-4-yl)cyclohexyl]benzenesulfonamide], the half-inhibitory concentration (IC50) worked out at 157 nM. This IC50 lies about 7.8-fold higher than the previous one.

The compound `O=S(=O)(N[C@H]1CCC[C@@H](n2cnnc2)C1)c1ccc(Oc2ccccc2)cc1` [Compound 2Mv, 4-phenoxy-N-[(1S,3R)-3-(4H-1,2,4-triazol-4-yl)cyclohexyl]benzenesulfonamide] returned an IC50 of 51 nM.

What is called IC50 is the concentration needed to halve the response being measured.
